Results published in the OligoGym collection.
Several values for one entry are separate records, joined by “and”; a condition that tells them apart may be missing. Identical values can stand only once. After the bases stand the sugars from the 5' end (letter, count) and the backbone: PS all phosphorothioate, else s phosphorothioate and o phosphodiester by linkage. Methylation of C is not given here. e = 2'-O-(2-methoxyethyl) (MOE); k = constrained ethyl (cEt); d = 2'-deoxy (DNA)

Tests used:
IRF5 = details: ASO, KARPAS-229, 4 µM
DGAT2 = details: ASO

Sequence | target mRNA inhibition (IRF5) [%] | target mRNA inhibition (DGAT2; HepG2, 2.5 µM) | target mRNA inhibition (DGAT2; HepG2, 10 µM) | other results
GTTCTTGGACTCTCAA (sugars kkdddddddddkekek, PS) | 31 | – | – | –
GCTTGGTCTTGACCTC (sugars kddddddddddkekek, PS) | 18 | – | – | –
AGGAGTGAGACGAGCA (sugars kkkdddddddddkeke, PS) | 42 | – | – | –
TGAGTCTCAAACCAGG (sugars k3 d9 k3 e1, PS) | 0 | – | – | –
TTCTGCAGGGAGTCAG (sugars k3 d10 k3, PS) | 0 | – | – | –
GTGTATTTCCCTGTCT (sugars kkdddddddddkdkdk, PS) | 0 | – | – | –
ATTTTGTGACTGTATT (sugars k3 d10 k3, PS) | 4 | – | – | –
TGCACTGACACAGGCG (sugars kkdddddddddkdkdk, PS) | 0 | – | – | –
CACTGACACAGGCGGA (sugars kekdddddddddeekk, PS) | 0 | – | – | –
TGAGACGAGCAAAGGG (sugars k3 d10 k3, PS) | 22 | – | – | –
TTATTTCTGCTCCAGG (sugars kddddddddddkekek, PS) | 0 | – | – | –
CATTCCATATACACAC (sugars kddddddddddkekek, PS) | 31 | – | – | –
CCATTCTATGCCTTTT (sugars kkdddddddddkdkdk, PS) | 46 | – | – | –
GTGAGTCTCAAACCAG (sugars kdddddddddkekeke, PS) | 0 | – | – | –
GTGTATTTCCCTGTCT (sugars k3 d9 k3 e1, PS) | 30 | – | – | –
GTCTTGACCTCCCGCT (sugars kkddddddddkekekk, PS) | 26 | – | – | –
ACATCCATCAATGAGG (sugars k3 d10 k3, PS) | 0 | – | – | –
GAGTGAGACGAGCAAA (sugars kdddddddddkekeke, PS) | 6 | – | – | –
CTTGGTCTTGACCTCC (sugars kkddddddddkekekk, PS) | 0 | – | – | –
GGAAGTGAGTCTCAAA (sugars kkkddddddddkekek, PS) | 45 | – | – | –
GATCACCTGCTTGTACACTT (sugars e5 d10 e5, PS) | – | 36% | 64% | –
AGGCCAAGGACAGAGGTTCA (sugars e5 d10 e5, PS) | – | 60% and 51% | 81% and 87% | –

Sequence | target mRNA inhibition (IRF5) [%] | target mRNA inhibition (DGAT2; HepG2, 2.5 µM) | target mRNA inhibition (DGAT2; HepG2, 10 µM) | other results
AAGGAAAACTTAGGCATGCT (sugars e5 d10 e5, PS) | – | 63% | 80% | –
TGCCCTTGCTGTAGGACCCA (sugars e5 d10 e5, PS) | – | 92% and 79% | 88% and 95% | –
GCCTGGACAAGTCCTGCCCA (sugars e2 d13 e5, PS) | – | 44% and 45% | 87% | target mRNA inhibition (DGAT2; HepG2, 0.12 µM): 78%; target mRNA inhibition (DGAT2; HepG2, 20 µM): 55%
GAAGTCAGGCCAAGTGCCAA (sugars e5 d10 e5, PS) | – | – | – | target mRNA inhibition (DGAT2; HepG2, 0.12 µM): 26%
TGCTGAGCTCATGAGAAGCT (sugars e5 d10 e5, PS) | – | 75% and 57% | 92% and 83% | –
AGGCATATACAAAAGTCTGA (sugars e5 d10 e5, PS) | – | – | – | target mRNA inhibition (DGAT2; HepG2, 0.12 µM): 38%
TTATCCTTGAGGGTCTCATA (sugars e5 d10 e5, PS) | – | – | – | target mRNA inhibition (DGAT2; HepG2, 0.12 µM): 45%
AGGCACAGAAAAGTGAGGCT (sugars e5 d10 e5, PS) | – | 75% | 67% | –
TTGGTCTTTTTGGCTGCCCT (sugars e5 d10 e5, PS) | – | – | 85% and 82% | –
TCCTCTCCTGTTTGATGGGT (sugars e5 d10 e5, PS) | – | 83% and 90% | 89% and 84% | –
GAGTATAGAAATTTCACTGA (sugars e5 d10 e5, PS) | – | – | – | target mRNA inhibition (DGAT2; HepG2, 0.12 µM): 44%
CAGAGTTATCCTCAATTCAC (sugars e5 d10 e5, PS) | – | – | – | target mRNA inhibition (DGAT2; HepG2, 0.12 µM): 34%
CAGGTTCATCTGCCTTGACG (sugars e5 d10 e5, PS) | – | 69% | 72% | –
GCCAAGGACAGAGGTTCAAC (sugars e5 d10 e5, PS) | – | 61% | 90% | –
AATGGAGTGACAGGGCAGGA (sugars e5 d10 e5, PS) | – | 54% | 81% | –
TGTGCTCTGTGGGCTCCTCC (sugars e5 d10 e5, PS) | – | 66% | 85% | –
GGGTCCTCTCCGCTGCC (sugars e3 d10 e4, PS) | – | 47% | 69% | –
CATTCTTTGAAAGCAAATAG (sugars e5 d10 e5, PS) | – | – | – | target mRNA inhibition (DGAT2; HepG2, 0.12 µM): 15%
CCAGCTGGATGGGAAAGTAG (sugars e5 d10 e5, PS) | – | – | – | target mRNA inhibition (DGAT2; HepG2, 0.12 µM): 24%
GCTTGTCGAAGAGCTTCACC (sugars e5 d10 e5, PS) | – | 25% | 78% | –
GCCTCGGTGTCCTCTCCTGT (sugars e5 d10 e5, PS) | – | 59% | 83% | –
